Results reported in the supplement of paper PMC10307832.

What was measured:
Experiment in all cases: relative viability (nuclei count vs DMSO), 5 days (fraction); higher = more cells survive
Quizartinib + Tozasertib = compound: CC(C)(C)c1cc(NC(=O)Nc2ccc(-c3cn4c(n3)sc3cc(OCCN5CCOCC5)ccc34)cc2)no1 [Quizartinib] + Cc1cc(Nc2cc(N3CCN(C)CC3)nc(Sc3ccc(NC(=O)C4CC4)cc3)n2)n[nH]1 [Tozasertib] (partner 0.1 µM)
How it was run: (§1)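 Cells from lung cancer lines were seeded into 1536-well plates and, one day later, dosed by pin tool. Treatments were either a single drug or a fixed dose of an anchor drug with five library-drug doses (not always all listed) in √10 steps. After 5 days, nuclei were stained in a one-step fixation (final 0.05% Triton X-100, 1% formaldehyde, 1 ug/ml Hoechst) and counted on 4× images, and relative viability is the treated-to-vehicle nuclei ratio, as the median of duplicate plates.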

Quizartinib + AZD7762 = compound: CC(C)(C)c1cc(NC(=O)Nc2ccc(-c3cn4c(n3)sc3cc(OCCN5CCOCC5)ccc34)cc2)no1 [Quizartinib] + NC(=O)Nc1cc(-c2cccc(F)c2)sc1C(=O)N[C@H]1CCCNC1 [AZD7762] (partner 0.2 µM)
How it was run: as §1

Quizartinib + OSI-027 = compound: CC(C)(C)c1cc(NC(=O)Nc2ccc(-c3cn4c(n3)sc3cc(OCCN5CCOCC5)ccc34)cc2)no1 [Quizartinib] + COc1cccc2cc(-c3nc([C@H]4CC[C@H](C(=O)O)CC4)n4ncnc(N)c34)[nH]c12 [OSI-027] (partner 0.5 µM)
How it was run: as §1

YM155 + Alpelisib = compound: COCC[n+]1c2c(n(Cc3cnccn3)c1C)C(=O)c1ccccc1C2=O [YM155] + Cc1nc(NC(=O)N2CCC[C@H]2C(N)=O)sc1-c1ccnc(C(C)(C)C(F)(F)F)c1 [Alpelisib] (partner 2 µM)
How it was run: as §1

Cell Line	relative viability (Quizartinib + Tozasertib; first compound 0.001 µM)	relative viability (Quizartinib + Tozasertib; first compound 0.003162 µM)	relative viability (Quizartinib + Tozasertib; first compound 0.01 µM)	relative viability (Quizartinib + Tozasertib; first compound 0.03162 µM)	relative viability (Quizartinib + Tozasertib; first compound 0.1 µM)	relative viability (Quizartinib + AZD7762; first compound 0.001 µM)	relative viability (Quizartinib + AZD7762; first compound 0.003162 µM)	relative viability (Quizartinib + AZD7762; first compound 0.01 µM)	relative viability (Quizartinib + AZD7762; first compound 0.03162 µM)	relative viability (Quizartinib + AZD7762; first compound 0.1 µM)	relative viability (Quizartinib + OSI-027; first compound 0.001 µM)	relative viability (Quizartinib + OSI-027; first compound 0.003162 µM)	relative viability (Quizartinib + OSI-027; first compound 0.01 µM)	relative viability (Quizartinib + OSI-027; first compound 0.03162 µM)	relative viability (Quizartinib + OSI-027; first compound 0.1 µM)	relative viability (YM155 + Alpelisib; first compound 0.002 µM)	relative viability (YM155 + Alpelisib; first compound 0.006325 µM)	relative viability (YM155 + Alpelisib; first compound 0.02 µM)	relative viability (YM155 + Alpelisib; first compound 0.06325 µM)
NCI-H1651	0.604	0.679	0.645	0.351	0.5	0.473	0.346	0.508	0.416	0.466	0.672	0.584	0.637	0.632	0.742	0.979	0.904	0.925	0.694
NCI-H1666	0.56	0.594	0.612	0.462	0.557	0.851	0.803	0.888	0.8	0.99	0.755	0.883	0.856	0.764	0.857	0.822		1.11	0.844
NCI-H1734	0.237	0.288	0.267	0.274	0.271	0.736	0.54	0.603	0.522	0.628	0.522	0.543	0.636	0.555	0.611	0.63	0.658	0.697	0.776
NCI-H1755	0.583	0.536	0.569	0.626	0.48	0.486	0.392	0.489	0.526	0.434	0.591	0.645	0.79	0.793	0.701	0.892	0.926	0.973	1.02
NCI-H1793	0.329	0.289	0.291	0.214	0.238	0.483	0.414	0.451	0.409	0.259	0.27	0.298	0.232	0.309	0.232		0.601	0.659	0.565
NCI-H1915	0.419	0.427	0.42	0.401	0.389	0.683	0.613	0.646	0.694	0.721	0.602	0.642	0.562	0.683	0.606	1.06	1.01	1.08	0.975
NCI-H1944	0.291	0.264	0.267	0.263	0.278	0.493	0.414	0.48	0.57	0.527	0.407	0.476	0.327	0.395	0.387	0.83	0.756	0.803	0.905
NCI-H1975	0.71	0.809	0.488	0.372	0.16	0.729	0.721	0.743	0.587	0.651	0.682	0.624	0.722	0.673	0.572	0.627	0.665	0.581	0.549
NCI-H1993	0.589	0.645	0.594	0.622	0.582	0.759	0.699	0.87	0.672	0.914	0.487	0.46	0.672	0.621	0.544	0.691	0.726	0.673	0.657
NCI-H2085	0.679	0.752	0.816	0.614	0.45	0.861	0.9	1.04	0.87	0.596	0.784	0.648	0.662	0.778	0.525	0.955	0.833	0.731	0.559
NCI-H2087		0.226	0.233	0.189	0.262	1.13	1.15	1.26	1.38	1.3		0.583	0.486	0.514	0.496	0.903	1.06	1.03	0.822
NCI-H2126	0.751	0.848	0.831		0.846	1.03	0.923	0.982	0.954	1.01	0.66	0.753	0.671	0.621	0.693	0.754	0.76	0.77	0.802
NCI-H2170	0.665	0.654	0.853	0.749	0.804	0.906	0.848	0.914	0.973	1.03	0.695	0.659	0.825	0.774	0.816	0.866	0.855	0.889	0.877
NCI-H2347	0.547	0.419	0.531	0.511	0.521	0.728	0.696	0.799	0.768	0.749	0.234	0.434	0.365	0.377	0.516	1.01	0.896	0.987	0.67
NCI-H2405	0.742	0.722	0.726	0.738	0.68	0.919	0.741	0.789	0.745	0.797	0.653	0.702	0.736	0.644	0.626	0.826	0.593	0.826	0.345
NCI-H3122		0.368	0.483		0.337	0.964	1.02	0.971	1.02	0.962		0.947	1.08		0.877	0.67	0.665	0.751	0.82
PC-3 [JPC-3]	0.835	0.849	0.909	0.849	0.852	0.545	0.811	0.781	0.75	0.766	0.692	0.747	0.782	0.757	0.698	1.02	1.02	1.07	0.972
